Measurements: patent US20230404989A1, “GRK2 INHIBITION BY PAROXETINE AMELIORATES OSTEOARTHRITIS” (THE PENN STATE RESEARCH FOUNDATION, priority 2020, published 2023)

Legend:
[1] = tested on: DMM mice; assay: DMM mice treated with PTH, paroxetine or their combination: histology and histomorphometry (Example 1); format: in vivo, mouse; details: treatment week 8 to 12, PTH sc 40 μg/kg/day, paroxetine ip 5 mg/kg/day
Procedure: Methods: Destabilization of the medial meniscus (DMM) surgery was used to simulate clinical post-traumatic OA. First, we determined the role of GRK2 inhibition in PTH1R Gas-cAMP signaling: 12 week old male mice underwent sham or DMM surgery and were treated with either vehicle or the GRK2 inhibitor “paroxetine” (ip, 5 mg/kg/day), treatment was initiated at the time of surgery and continued daily until 8 weeks. Knees were harvested and articular cartilage was obtained for ex vivo analysis of Gas activity. In ex vivo culture, cartilage explants were treated with PTH as an agonist to stimulate PTH1R-Ga-cAMP signaling. Thirty minutes following PTH stimulation, cartilage tissue was homogenized and cAMP levels were measured. Then, we determined the role of GRK2 inhibition in recovering or even potentiating PTH1R signaling in OA cartilage: 12 week old male mice underwent sham or DMM surgery, and received treatment with vehicle, PTH (sc, 40 μg/kg/day) alone, the GRK2 inhibitor “paroxetine3” (ip, 5 mg/kg/day) alone, or their combination. Treatment was initiated at week 8 following DMM surgery, where OA is in progress, and continued until week 12 where mice were sacrificed. Knees were harvested, paraffin embedded, sectioned and stained with safranin-o and fast green for histological evaluation, OARSI scoring, and histomorphometric analysis. Results are expressed as mean values+s.e.m. with an N=5-8 mice per experimental group. Statistical analyses were performed using one ANVOA with P<0.05 representing statistical significance.

[2] = tested on: DMM mice; assay: Paroxetine combined with PTH in DMM mice: Micro-CT of subchondral bone; format: in vivo, mouse; details: daily from 8 weeks, harvest 12 weeks after surgery
[3] = tested on: DMM mice; assay: DMM drug treatment study: OARSI scoring and histomorphometry of knee cartilage; format: in vivo, mouse
Procedure: Drug treatment studies: In twelve-week old male wild type C57BL/6 mice that received DMM surgeries, vehicle (PBS), paroxetine (5 mg/kg/day), fluoxetine (5 mg/kg/day), gallein (10 mg/kg/day) or indomethacin (2.5 mg/kg/day) were administered daily by ip injection. Drug treatment was initiated 8 weeks following DMM to determine the role of GRK2 signaling in the progression of OA.
Twelve-week-old male mice were administered DMM surgery to the right knee and sham surgery to the left knee as described (S. S. Glasson, Osteoarthritis. Cartilage. 15, 1061-1069 (2007)). Briefly, mice were anesthetized via intraperitoneal injection of ketamine (60 mg/kg) and xylazine (4 mg/kg), and a 5-mm-long incision was made on the medial side of the knee. Under a dissecting microscope, an incision was made along the medial side of the patellar tendon, opening the joint space. Using a #11 scalpel, the medial meniscotibial ligament (MMTL) was transected, enabling the medial meniscus to move freely. A similar skin incision was made in sham knees, but the joint structure was not disturbed. For the sham group, both right and left knees had sham surgeries. After surgery, 4-0 silk sutures were used to close the incision using an interrupted pattern. Mice were provided analgesia via intraperitoneal injection of buprenorphine (0.5 mg/kg) every 12 hours for 72 hours, and sutures were removed after 7 days. Mice were sacrificed, at the indicated time points, by anesthesia followed with whole animal perfusion using 10% NBF, knees were harvested and fixed for 7 days in 10% NBF, decalcified for 7 days in 10% w/v EDTA, embedded in paraffin, and 10-μm sections were cut and mounted for Safranin-O/Fast Green or IF staining.
Semi-quantitative histopathologic grading was performed using a derivative of the Chambers' scoring system that has been established by the OARSI histopathology initiative as the standard method for grading of mouse cartilage degeneration. Based on this system, cartilage grading was carried out using Safranin-O/Fast Green-stained midsagittal sections. Three sections from representative levels (50 μm apart) of the medial compartment of the joint were selected for each sample and, which were evaluated in a randomized, blinded manner by 3 laboratory members. The 3 scores were averaged to calculate the section score, and the sample score was then calculated by averaging the scores obtained from the three levels. Grading was performed using the following scale: 0=normal cartilage, 0.5=loss of proteoglycan stain without cartilage damage, 1=mild superficial fibrillation, 2=fibrillation and/or clefting extending below the superficial zone, 3=mild (<25%) loss of cartilage, 4=moderate (25-50%) loss of cartilage, 5=severe (50-75%) loss of uncalcified cartilage, and 6=eburnation with >75% loss of cartilage. Grading was performed by three blinded observers (F.K., M.J.Z., and E.R.S.). Observer agreement was evaluated in pairs via calculation of a weighted kappa coefficient, using Fleiss-Cohen weights, as we have described. The F.K. versus M.J.Z. coefficient was 0.92, the F.K. versus E.R.S. coefficient was 0.94, and the M.J.Z. versus E.R.S coefficient was 0.89, all indicative of strong agreement between the observers.
Using Safranin-O/Fast Green-stained sections, the OsteoMetrics system was used to quantify the above parameters on three sections from representative levels (50 μm apart) of the medial compartment of the joint for each sample. Live images of the center of the knee joint were collected through an Olympus microscope (10× objective) outfitted with a camera, a stylus was used to trace the regions of interest (ROIs). A blinded observer quantified uncalcified articular cartilage area, total chondrocyte number and matrix-producing chondrocyte number using the built-in area calculation algorithms and quantification functions of the OsteoMeasure® system. […]

[4] = tested on: Gas activity (cAMP content in cartilage); assay: cAMP assay in tibial articular cartilage of drug-treated DMM mice; format: in vivo, mouse; details: daily ip week 8 to 12
Procedure: Drug treatment studies: In twelve-week old male wild type C57BL/6 mice that received DMM surgeries, vehicle (PBS), paroxetine (5 mg/kg/day), fluoxetine (5 mg/kg/day), gallein (10 mg/kg/day) or indomethacin (2.5 mg/kg/day) were administered daily by ip injection. Drug treatment was initiated 8 weeks following DMM to determine the role of GRK2 signaling in the progression of OA. Short term drug treatment study: To evaluate the acute effect of drug treatments, GRK2^f/f mice received sham or DMM surgery followed by treatment with vehicle, paroxetine, gallein, fluoxetine, or indomethacin with the doses indicated above for 1 week beginning at 8 weeks post DMM. All mice were sacrificed 9 weeks post DMM, 21 weeks of age, for analysis of OA progression. Gas activity was measured by quantifying cAMP content in cartilage pooled from 3 mice. Tibial cartilage was dissected out and snap frozen in liquid Nitrogen. As positive control, tibial cartilage obtained from normal mice was treated with 0.5 mM 3-isobutyl-1-methylxanthine (IBMX) for 30 minutes, followed by 0.1 mM Forskolin for 15 minutes, then snap frozen in liquid Nitrogen. For human cartilage cAMP content, 70 mg frozen cartilage were used. Frozen cartilage was pulverized using 500 μL lysis buffer as we have previously described (H. K. Le Bleu, Anal Biochem, 518, 134-138 (2017)). cAMP content was quantified using the Cyclic AMP XP Assay kit (Cell Signaling, #4339) and following manufacturer's protocol, with 0.5 mM IBMX added to the lysis buffer to prevent phosphodiesterase mediated cAMP degradation during the extraction process. cAMP levels in different groups were normalized to that of sham mice or the vehicle treated human cartilage.

[5] = tested on: DMM mice; assay: Anterior femoral synovial membrane thickness in DMM mice; format: in vivo, mouse; details: daily ip week 8 to 12, versus vehicle
Procedure: Drug treatment studies: In twelve-week old male wild type C57BL/6 mice that received DMM surgeries, vehicle (PBS), paroxetine (5 mg/kg/day), fluoxetine (5 mg/kg/day), gallein (10 mg/kg/day) or indomethacin (2.5 mg/kg/day) were administered daily by ip injection. Drug treatment was initiated 8 weeks following DMM to determine the role of GRK2 signaling in the progression of OA. Using Safranin-O/Fast Green-stained sections, the OsteoMetrics system was used to quantify the above parameters on three sections from representative levels (50 μm apart) of the medial compartment of the joint for each sample. Live images of the center of the knee joint were collected through an Olympus microscope (10× objective) outfitted with a camera, a stylus was used to trace the regions of interest (ROIs). A blinded observer quantified uncalcified articular cartilage area, total chondrocyte number and matrix-producing chondrocyte number using the built-in area calculation algorithms and quantification functions of the OsteoMeasure® system. […] The calcified cartilage was determined with a line drawn along the tide mark, which is the naturally occurring line separating the calcified and uncalcified regions of the articular cartilage. A second line was drawn at the chondro-osseous junction where the calcified cartilage meets the subchondral bone. The uncalcified cartilage area was determined by subtracting the calcified cartilage area from the total area of cartilage. Total chondrocyte number and matrix-producing chondrocyte number were counted within the uncalcified cartilage region using count functions within the histomorphometry system. Matrix-producing chondrocytes were counted based on the region of Safranin-O staining within the extracellular matrix surrounding the articular chondrocyte, indicating anabolic signaling to maintain matrix homeostasis. Similarly, the anterior femoral synovial thickness was measured using OsteoMeasure® software. Synovial membrane thickness extending from anterior horn of the medial meniscus to the femur was determined by drawing a line from the inner insertion point on the femur towards the attachment on the meniscus. A second line was drawn from the outer insertion of the femur towards the attachment to the meniscus. The synovial thickness was calculated by dividing total synovial area by synovial perimeter.

[6] = molecular target: T1, GRK2 (Homo sapiens, UniProt P25098); details: from cited literature; cited from earlier work
T1 sequence (P25098 1-689): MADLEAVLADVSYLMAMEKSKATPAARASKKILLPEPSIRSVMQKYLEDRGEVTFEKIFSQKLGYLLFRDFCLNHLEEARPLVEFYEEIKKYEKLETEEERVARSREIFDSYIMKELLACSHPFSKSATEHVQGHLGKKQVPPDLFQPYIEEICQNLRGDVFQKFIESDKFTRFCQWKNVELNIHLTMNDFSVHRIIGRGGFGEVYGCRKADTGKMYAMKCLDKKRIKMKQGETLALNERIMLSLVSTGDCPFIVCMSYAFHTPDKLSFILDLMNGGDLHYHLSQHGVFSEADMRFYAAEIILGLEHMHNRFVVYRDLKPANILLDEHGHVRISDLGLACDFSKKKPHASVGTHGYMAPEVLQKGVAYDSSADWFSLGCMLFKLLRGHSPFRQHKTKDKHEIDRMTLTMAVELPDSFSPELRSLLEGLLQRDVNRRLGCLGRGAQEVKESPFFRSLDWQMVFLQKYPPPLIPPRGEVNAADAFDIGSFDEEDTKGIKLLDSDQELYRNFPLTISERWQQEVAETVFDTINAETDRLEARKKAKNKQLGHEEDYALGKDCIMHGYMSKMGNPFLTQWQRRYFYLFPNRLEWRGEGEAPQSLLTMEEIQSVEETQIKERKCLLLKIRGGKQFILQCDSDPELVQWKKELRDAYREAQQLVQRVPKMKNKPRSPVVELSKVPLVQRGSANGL

[7] = daily ip week 8 to 12, versus vehicle

In the case of parathyroid hormone [PTH], the chondrocyte number [1] is reported as “increased”, the “number of matrix-producing (anabolic) chondrocytes” value [1] is reported as “particular increase” and the uncalcified cartilage area [1] is reported as “increased”. The “effect on the subchondral bone of OA mice (plate thickness, BMD, BV/TV, Tb.Th, osteophytes)” value [2] was “deleterious effects”.

In the case of CNCCC(Oc1ccc(C(F)(F)F)cc1)c1ccccc1 (stereo not shown) [fluoxetine], the “cartilage degeneration (Safranin-O and Fast Green histology)” value ([3]; daily ip week 8 to 12) is reported as “progressive cartilage degeneration”, the “chondro-protective and matrix-regenerative effects (overall)” value ([3]; daily ip week 8 to 12) is reported as “lacks chondro-protective and matrix-regenerative effects” and the “total number of chondrocytes” value ([3]; daily ip week 8 to 12) is reported as “only mild preservation”. For the same compound, the uncalcified cartilage area ([3]; daily ip week 8 to 12) was “no preservation”, the OARSI score [3, 7] was “high” and the “number of matrix producing chondrocytes” value [3, 7] was “low”. For the same compound, the “cAMP levels in the articular cartilage” value [4] was “not different from vehicle treated mice”, the synovial membrane thickness [5] was “attenuated” and the GRK2 inhibitory effect [6] was “lacks any GRK2-inhibitory effects”.

With COc1ccc2c(c1)c(CC(=O)O)c(C)n2C(=O)c1ccc(Cl)cc1 [indomethacin] the “cartilage degeneration (Safranin-O and Fast Green histology)” value ([3]; daily ip week 8 to 12) was “progressive cartilage degeneration”, the “chondro-protective and matrix-regenerative effects (overall)” value ([3]; daily ip week 8 to 12) was “no chondro-protective or matrix-regenerative effects” and the synovial membrane thickness [5] was “significantly reduced”.
